Data reported in ChEMBL document CHEMBL1124616, “Hybrid cholecystokinin (CCK) antagonists: new implications in the design and modification of CCK antagonists” (J Med Chem, 1989).
pIC50: −log10 of the molar value.

Legend:
Cavia porcellus = species on record: Cavia porcellus; assay: Compound was evaluated for the ability to inhibit CCK-stimulated amylase release in pancreatic acinar cells of guinea pig; assay type: functional
[1] = molecular target: T1, Gastrin/cholecystokinin type B receptor (Cavia porcellus, UniProt H0VZC5); assay: Compound was evaluated for the binding affinity against Cholecystokinin type A receptor in cortical cells.; assay type: cell-based
T1 sequence (H0VZC5 1-426): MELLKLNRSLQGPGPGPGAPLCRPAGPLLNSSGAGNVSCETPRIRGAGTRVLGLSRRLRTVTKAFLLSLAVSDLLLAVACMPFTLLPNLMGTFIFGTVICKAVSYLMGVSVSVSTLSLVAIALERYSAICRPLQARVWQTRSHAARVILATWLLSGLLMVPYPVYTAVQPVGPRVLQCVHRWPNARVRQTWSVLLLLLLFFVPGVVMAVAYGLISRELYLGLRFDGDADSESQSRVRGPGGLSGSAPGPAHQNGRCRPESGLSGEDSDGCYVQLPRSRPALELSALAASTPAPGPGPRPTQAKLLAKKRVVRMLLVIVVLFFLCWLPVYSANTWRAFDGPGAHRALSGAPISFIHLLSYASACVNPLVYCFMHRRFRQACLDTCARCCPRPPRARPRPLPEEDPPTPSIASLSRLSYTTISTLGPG

[2] = molecular target: T2, Cholecystokinin receptor type A (Cavia porcellus, UniProt Q63931); assay: Compound was evaluated for the binding affinity against Cholecystokinin type A receptor in pancreatic acinar cell
T2 sequence (Q63931 whole entry): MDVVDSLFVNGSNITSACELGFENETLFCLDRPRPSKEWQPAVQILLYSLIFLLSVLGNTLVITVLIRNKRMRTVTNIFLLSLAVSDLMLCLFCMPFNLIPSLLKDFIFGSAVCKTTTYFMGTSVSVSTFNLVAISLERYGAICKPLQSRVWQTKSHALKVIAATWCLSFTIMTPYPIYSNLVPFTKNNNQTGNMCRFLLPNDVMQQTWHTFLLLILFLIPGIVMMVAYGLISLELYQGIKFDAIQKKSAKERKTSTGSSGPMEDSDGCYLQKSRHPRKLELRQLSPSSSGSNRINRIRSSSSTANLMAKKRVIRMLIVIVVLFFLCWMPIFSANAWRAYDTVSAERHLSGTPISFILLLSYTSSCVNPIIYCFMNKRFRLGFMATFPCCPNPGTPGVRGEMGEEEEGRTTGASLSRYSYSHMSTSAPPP

[3] = molecular target: T2, Cholecystokinin receptor type A; assay: Compound was evaluated for the binding affinity against CCK A receptor in pancreatic acinar cell
[4] = molecular target: T1, Gastrin/cholecystokinin type B receptor; assay: Compound was evaluated for the binding affinity against CCK A receptor in cortical cells.; assay type: cell-based

SMILES | pIC50 [1] | pIC50 [2] | pIC50 [3] | pIC50 [4] | pIC50 (Cavia porcellus)
CCCCCN(CCCCC)C(=O)[C@@H](CCC(=O)O)NC(=O)c1cnc2ccccc2c1 |  |  |  |  | 7.80
CCCCCN(CCCCC)C(=O)[C@H](CCC(=O)O)NC(=O)c1cc2ccccc2[nH]1 |  |  |  |  | 6.23
CCCCCN(CCCCC)C(=O)[C@@H](CCC(=O)O)NC(=O)c1cc2ccccc2[nH]1 |  |  |  |  | 7.44
CCCCCN(CCCCC)C(=O)[C@@H](CCC(=O)O)NC(=O)c1ccc(Cl)c(Cl)c1 |  |  |  |  | 6.74
CCCCCN(CCCCC)C(=O)[C@@H](CCC(=O)O)NC(=O)c1ccc2ccccc2n1 |  | 7.20 |  |  | 
CCCCCN(CCCCC)C(=O)[C@@H](CCC(=O)O)NC(=O)c1ccc2ncccc2c1 |  |  | 7.51 | 4.96 | 7.19

Further lines, with some results ahead:

pIC50 [1] | pIC50 [2] | pIC50 [3] | pIC50 [4] | SMILES | pIC50 (Cavia porcellus)
4.96 | 6.49 |  |  | CCCCCN(CCCCC)C(=O)[C@@H](CCC(=O)O)NC(=O)c1cccc2ccccc12 | 6.55
 |  | 5.31 |  | CCCCCN(CCCCC)C(=O)[C@H](CCC(=O)O)NC(=O)c1ccc(Cl)c(Cl)c1 | 4.96
4.49 |  |  |  | CCCCCN(CCCCC)C(=O)[C@@H](CCC(=O)O)NC(=O)c1c[nH]c2ccccc12 | 6.08
5.38 | 7.92 |  |  | CCCCCN(CCCCC)C(=O)[C@@H](CCC(=O)O)NC(=O)c1ccc2ccccc2c1 [AMIGLUMIDE] | 7.44
